The assay in a line: EGFP reporter destabilization counter-screen – F442A EGFP cells, fluorescence, counter-screen for p/CIP destabilizer project, dose response (AID 2005).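 Also: cells express EGFP alone from a CMV promoter as a counter screen for p/CIP-EGFP.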 As to conditions: F442A EGFP cells, EGFP fluorescence, 16 h, stronger effect = higher value. Background: Counterscreens check selectivity or assay interference.

Active and inactive are the calls of the source.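 The calls were made as follows: active = plate Z score at or below -3, or inhibition of at least 30% at 20 µM; inactive = the rest.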

In general, inhibition refers to the relative decrease from the control value, in per cent.

`O=S(=O)(NCC1CCCN(Cc2ccccc2)C1)c1cccc2cccnc12` (centres undefined): the inhibition is 21.3% (EGFP decrease, at 10 µM) and 19.6% (inactive) (at 20 µM).
In the same order, the values of `CCN1CCN(Cc2ccc(NC(=O)c3cc(NC(=O)C4=NN(c5ccccc5)C(=O)C4)cc(OC)c3)cc2C(F)(F)F)CC1` are 37.6% and 24.2% (inactive).
On to `Cc1ccc(SCC(=O)N(C)C2CCS(=O)(=O)C2)cc1` (centres undefined), for which the inhibition (EGFP decrease, at 10 µM) is 17.7% and the inhibition (at 20 µM) is 28.3% (inactive).
For `C[C@H](NC(=O)OCc1ccccc1)c1nnc([C@H](C)NC(=O)OCc2ccccc2)o1`, the inhibition is, setting by setting: (EGFP decrease, at 10 µM) -3.8%; (at 20 µM) -5.1% (inactive).
Taken in the same sequence, the figures for `COc1cc(Cl)c(C)cc1NC(=O)CSc1ccc(NC(C)=O)cc1` were 20.2% and 10.2% (inactive).
Taken in the same sequence, the figures for `c1ccc2c3nnc4n(c-3nc2c1)CCCS4` were 17.5% and 23.7% (inactive).
In the same order, the values of `COc1cc(C2NCCC(=O)C2(C)C)cc(OC)c1OC` (centres undefined) are -1.8% and 21.4% (inactive).
Consider `Cc1ccc(S(=O)(=O)N/N=C(\c2ccccc2)c2cccnc2)cc1`, for which the inhibition is, setting by setting: (EGFP decrease, at 10 µM) 5.5%; (at 20 µM) 21.7% (inactive).
In the same order, the values of `CC(C)CCN1C(=O)c2ccc(C(=O)NCC3CCCO3)cc2C1=O` (centres undefined) are 8.4% and 3.8% (inactive).
For `Nc1ncnc2c1ncn2[C@H]1C[C@H](O)[C@@H](CO)O1`, the inhibition by setting is: (EGFP decrease, at 10 µM) 1.2%; (at 20 µM) 26.2% (inactive).
Taken in the same sequence, the figures for `CCC1=C(OC(=O)N(CC)CC)N2C(=O)OC(=NCC(=O)OC)[C@]2(Cc2ccccc2)[C@H]2C1=CC[C@H]1C(=O)N(c3ccccc3)C(=O)[C@H]12` were 8.2% and 2% (inactive).
Taken in the same sequence, the figures for `CCc1c(C)nc(SCC(=O)Nc2cccc(Br)c2)[nH]c1=O` were 35.5% and 12.1% (inactive).
In the same order, the values of `CCN(Cc1nc2ccccc2c(=O)[nH]1)Cc1nc2ccsc2c(=O)[nH]1` are 26.2% and 22.6% (inactive).
Turning to `Cc1onc(-c2ccccc2Cl)c1C(=O)NCc1cccnc1`, the inhibition was 22.1% (EGFP decrease, at 10 µM) and 15.9% (inactive) (at 20 µM).
Taken in the same sequence, the figures for `CCOC(=O)CCc1c(C)c2ccc(OCC(=O)N(CC)CC)c(C)c2oc1=O` were 19.9% and 8.8% (inactive).
In the same order, the values of `CC(OC(=O)c1cccc(-n2cnnn2)c1)C(=O)N(C)c1ccccc1` (centres undefined) are 23.3% and 6% (inactive).
Regarding `CC(=O)N1CCN(C(=O)CCCNC(=O)c2ccc(Cl)cc2)CC1`, the inhibition was 21% (EGFP decrease, at 10 µM) and -1.6% (inactive) (at 20 µM).
In the same order, the values of `O=C(NCCSc1ccccn1)c1ccc(Cl)cc1Cl` are 19.7% and 3.4% (inactive).
In the same order, the values of `O=C(Nc1nc2nc(-c3ccccc3)cc(-c3ccccc3)n2n1)c1ccco1` are 4.8% and 5.5% (inactive).
In the same order, the values of `CCOC(=O)CSC1=Nc2ccccc2C2=NC(CC(=O)NCc3ccc4c(c3)OCO4)C(=O)N12` (centres undefined) are -26.1% and 3.9% (inactive).
As to `CCC(=O)Nc1ccccc1Oc1ccccc1`, the inhibition (EGFP decrease, at 10 µM) is 12.2% and the inhibition (at 20 µM) was 19.7% (inactive).
On to `O=C(NCCc1cccc(F)c1)C1CCCN(c2nc3ccccc3s2)C1` (centres undefined), for which the inhibition is, setting by setting: (EGFP decrease, at 10 µM) 16.8%; (at 20 µM) 0.4% (inactive).
In the same order, the values of `O=S(=O)(NCc1cn2ccccc2n1)c1cccs1` are 8.4% and -3.1% (inactive).
On to `COCCN(CC(=O)NC1CCCCC1)C(=O)CSc1nc2ccccc2o1`, for which the inhibition reads like this: (EGFP decrease, at 10 µM) 7.4%; (at 20 µM) 28.7% (inactive).
As for `O=C(Nc1cccc(-c2csc(Nc3ccc(Cl)cc3)n2)c1)c1cc([N+](=O)[O-])cc(C(F)(F)F)c1`, the inhibition is 32.2% (EGFP decrease, at 10 µM) and 21.2% (inactive) (at 20 µM).
As for `Cc1cc(NC(=O)CSc2ccc3nnc(-c4cccs4)n3n2)no1`, the inhibition (EGFP decrease, at 10 µM) amounted to 10.8% and the inhibition (at 20 µM) was 15.9% (inactive).
Regarding `CCn1c(SCC(=O)Nc2nc3ccc(C)cc3s2)nc2c(c1=O)SC(C)C2` (centres undefined), the inhibition reads like this: (EGFP decrease, at 10 µM) 36.6%; (at 20 µM) 44.7%.
In the same order, the values of `COc1cc2c(cc1NC(=O)/C=C/c1ccccc1)oc1ccccc12` are 12.4% and -0.8% (inactive).
Taken in the same sequence, the figures for `Cc1ccccc1Cn1c(C)nc2ccccc21` were 29.8% and 39%.
In the same order, the values of `CC(=O)Nc1ccc(S(=O)(=O)Nc2nccs2)cc1` are 21.2% and 15.6% (inactive).
As for `Cc1nc(SCC(=O)Nc2cc(C)on2)c2c(=O)n(C)c(=O)n(C)c2n1`, the inhibition was 10% (EGFP decrease, at 10 µM) and 6.6% (inactive) (at 20 µM).
In the same order, the values of `CCOCCc1nnc(NC(=O)CS(=O)(=O)Cc2ccccc2)s1` are 12% and 6% (inactive).
Taken in the same sequence, the figures for `COc1ccc(C(NC(=O)CC(C)C)c2c(O)ccc3ccccc23)cc1` (centres undefined) were 18.1% and 5.2% (inactive).
In the same order, the values of `CCc1cccc(C)c1NC(=O)CCNC(=O)c1cccc(C)c1` are 12.2% and 12.9% (inactive).
As to `Cc1ccccc1OC(C)C(=O)Nc1ccc(S(=O)(=O)Nc2nccs2)cc1` (centres undefined), the inhibition was -2.8% (EGFP decrease, at 10 µM) and -1.1% (inactive) (at 20 µM).
With `CC(=O)Nc1ccc2c(c1)nc(CCNC(=O)c1ccco1)n2C`, the inhibition runs as follows: (EGFP decrease, at 10 µM) 1.2%; (at 20 µM) 13% (inactive).
In the same order, the values of `CCc1cc2c(=O)c(-c3cscn3)coc2cc1O` are -1.7% and -28% (inactive).
Taken in the same sequence, the figures for `O=C(O)C(O)Cc1c[nH]c2ccccc12` (centres undefined) were 23.8% and 19.1% (inactive).
Taken in the same sequence, the figures for `CN1CCN(C(=O)c2cccc(S(=O)(=O)N3CCCCC3)c2)CC1` were 10.5% and 20.5% (inactive).
Turning to `Cc1ccc(NC2CCCN(C(=O)c3ccccc3-c3ncc[nH]3)C2)cc1C` (centres undefined), the inhibition by setting is: (EGFP decrease, at 10 µM) -12.3%; (at 20 µM) 21.4% (inactive).
In the same order, the values of `COc1ccc2[nH]cc(CC(=O)O)c2c1` are 39.2% and 23.6% (inactive).
Turning to `CC(=O)NCCNC(=O)c1ccc(CSc2nc3ccccc3s2)cc1`, the inhibition was 15.9% (EGFP decrease, at 10 µM) and 16.6% (inactive) (at 20 µM).
In the same order, the values of `S=c1[nH]nc(COc2ccccc2)n1/N=C/c1ccc(Cl)cc1Cl` are 13.4% and 9.7% (inactive).
For `Cc1ccsc1/C=N\NC(=O)CCc1c(C)n[nH]c1C`, the inhibition reads like this: (EGFP decrease, at 10 µM) 4%; (at 20 µM) -13.2% (inactive).
Taken in the same sequence, the figures for `Cc1cc(C)nc(Sc2ccc3nnc(C(F)(F)C(F)(F)C(F)(F)F)n3n2)n1` were 40.7% and 15.9% (inactive).
Taken in the same sequence, the figures for `COc1ccc(CCNC(=O)c2ccncc2)cc1OC` were -3.3% and 20.8% (inactive).
Taken in the same sequence, the figures for `COc1ccc(CCNC(=O)C2CCN(S(=O)(=O)c3cccs3)CC2)cc1OC` were 34.9% and 25.1% (inactive).

These data come from PubChem BioAssay AID2005 (Sanford-Burnham Center for Chemical Genomics, 2009).
